In paper PMC5218480 (PLoS ONE, 2017):

Test system: MV-4-11 cells
Experiment: Gene expression microarray analysis (Affymetrix PrimeView) and GSEA
Type: cell-based, human
Set-up: RFU PODN (11730768_x_at) / Fold change /veh PODN (11730768_x_at) / RFU LINC00158 (11744669_a_at) / Fold change /veh LINC00158 (11744669_a_at) / RFU DUSP10 (11751237_a_at) / Fold change /veh DUSP10 (11751237_a_at) / RFU ID3 (11757404_x_at) / Fold change /veh ID3 (11757404_x_at) / RFU PLEKHG5 (11737974_s_at) / Fold change /veh PLEKHG5 (11737974_s_at) / RFU LRRC4B (11730491_at) / Fold change /veh LRRC4B (11730491_at) / RFU GIMAP4 (11747438_a_at) / Fold change /veh GIMAP4 (11747438_a_at) / RFU KRT8 (11758183_x_at) / Fold change /veh KRT8 (11758183_x_at) / RFU CNN1 (11734310_a_at) / Fold change /veh CNN1 (11734310_a_at) / RFU VPS37D (11726825_at) / Fold change /veh VPS37D (11726825_at) / RFU C10orf10 (11716522_x_at) / Fold change /veh C10orf10 (11716522_x_at) / RFU KIR2DL2 /// KIR2DL4 /// KIR2DL5A /// KIR2DL5B /// KIR2DS1 /// KIR2DS2 /// KIR2DS3 /// KIR2DS4 /// KIR3DL3 /// KIR3DL3 /// KIR3DS1 (11738374_at) / Fold change /veh KIR2DL2 /// KIR2DL4 /// KIR2DL5A /// KIR2DL5B /// KIR2DS1 /// KIR2DS2 /// KIR2DS3 /// KIR2DS4 /// KIR3DL3 /// KIR3DL3 /// KIR3DS1 (11738374_at) / RFU C1QL1 (11718748_at) / Fold change /veh C1QL1 (11718748_at) / RFU TMPRSS4 (11747572_a_at) / Fold change /veh TMPRSS4 (11747572_a_at) / RFU HAMP (11756126_x_at) / Fold change /veh HAMP (11756126_x_at) / RFU RNFT2 (11725882_a_at) / Fold change /veh RNFT2 (11725882_a_at) / RFU NR4A2 (11747474_a_at) / Fold change /veh NR4A2 (11747474_a_at) / RFU ABCC12 (11746883_a_at) / Fold change /veh ABCC12 (11746883_a_at) / RFU TMEM136 (11760407_x_at) / Fold change /veh TMEM136 (11760407_x_at) / RFU CLDN22 /// WWC2 (11732394_at) / Fold change /veh CLDN22 /// WWC2 (11732394_at) / RFU HLA-DPB1 (11760878_x_at) / Fold change /veh HLA-DPB1 (11760878_x_at) / RFU SPINT1 (11716480_a_at) / Fold change /veh SPINT1 (11716480_a_at) / RFU GAP43 (11754022_s_at) / Fold change /veh GAP43 (11754022_s_at) / RFU A4GNT (11735810_at) / Fold change /veh A4GNT (11735810_at) / RFU PRB3 (11715151_x_at) / Fold change /veh PRB3 (11715151_x_at) / RFU TUBB4B (11761932_at) / Fold change /veh TUBB4B (11761932_at) / RFU CAPN14 (11732068_a_at) / Fold change /veh CAPN14 (11732068_a_at) / RFU TMCC2 (11721928_a_at) / Fold change /veh TMCC2 (11721928_a_at) / RFU IRGQ (11745062_a_at) / Fold change /veh IRGQ (11745062_a_at) / RFU FAM174B (11720279_a_at) / Fold change /veh FAM174B (11720279_a_at) / RFU TMPRSS4 (11748680_a_at) / Fold change /veh TMPRSS4 (11748680_a_at) / RFU FAM212B (11763350_a_at) / Fold change /veh FAM212B (11763350_a_at) / RFU PLEKHG5 (11743358_a_at) / Fold change /veh PLEKHG5 (11743358_a_at) / RFU ZSCAN30 (11745921_a_at) / Fold change /veh ZSCAN30 (11745921_a_at) / RFU CMKLR1 (11741424_a_at) / Fold change /veh CMKLR1 (11741424_a_at) / RFU LOC101060620 /// MAPK8IP1 (11723275_at) / Fold change /veh LOC101060620 /// MAPK8IP1 (11723275_at) / RFU SPTSSB (11747773_x_at) / Fold change /veh SPTSSB (11747773_x_at) / RFU PRSS12 (11739890_at) / Fold change /veh PRSS12 (11739890_at) / RFU BIN1 (11741810_x_at) / Fold change /veh BIN1 (11741810_x_at) / RFU WNT11 (11732464_a_at) / Fold change /veh WNT11 (11732464_a_at) / RFU C10orf10 (11716521_a_at) / Fold change /veh C10orf10 (11716521_a_at) / RFU C5orf56 (11738089_at) / Fold change /veh C5orf56 (11738089_at) / RFU CYB561 (11721691_x_at) / Fold change /veh CYB561 (11721691_x_at) / RFU ANKRD19P (11752326_a_at) / Fold change /veh ANKRD19P (11752326_a_at) / RFU OR2T12 /// OR2T33 /// OR2T8 (11738714_s_at) / Fold change /veh OR2T12 /// OR2T33 /// OR2T8 (11738714_s_at) / RFU VCAN (11748164_a_at) / Fold change /veh VCAN (11748164_a_at) / RFU JSRP1 (11732532_at) / Fold change /veh JSRP1 (11732532_at) / RFU KRTAP10-11 (11738290_x_at) / Fold change /veh KRTAP10-11 (11738290_x_at) / RFU MYO3A (11730013_a_at) / Fold change /veh MYO3A (11730013_a_at) / RFU EBF3 (11725865_a_at) / Fold change /veh EBF3 (11725865_a_at) / RFU CAMK2N1 (11719241_x_at) / Fold change /veh CAMK2N1 (11719241_x_at) / RFU C5orf56 (11738088_a_at) / Fold change /veh C5orf56 (11738088_a_at) / RFU OLFML3 (11715873_a_at) / Fold change /veh OLFML3 (11715873_a_at) / RFU LOC100653217 /// NTM (11731650_a_at) / Fold change /veh LOC100653217 /// NTM (11731650_a_at) / RFU MAPK11 (11762145_a_at) / Fold change /veh MAPK11 (11762145_a_at) / RFU FIZ1 (11724087_x_at) / Fold change /veh FIZ1 (11724087_x_at) / RFU OASL (11726364_x_at) / Fold change /veh OASL (11726364_x_at) / RFU SOX15 (11748057_x_at) / Fold change /veh SOX15 (11748057_x_at) / RFU CD79A (11719716_a_at) / Fold change /veh CD79A (11719716_a_at) / RFU HIST1H1D (11736915_at) / Fold change /veh HIST1H1D (11736915_at) / RFU CASKIN2 (11723855_a_at) / Fold change /veh CASKIN2 (11723855_a_at) / RFU LOC730098 (11760151_x_at) / Fold change /veh LOC730098 (11760151_x_at) / RFU OR4N2 (11742367_at) / Fold change /veh OR4N2 (11742367_at) / RFU PRRT2 (11749266_a_at) / Fold change /veh PRRT2 (11749266_a_at) / RFU SNX32 (11753110_a_at) / Fold change /veh SNX32 (11753110_a_at) / RFU CDHR5 (11726645_a_at) / Fold change /veh CDHR5 (11726645_a_at) / RFU RCAN1 (11760418_a_at) / Fold change /veh RCAN1 (11760418_a_at) / RFU FAM167A (11723789_a_at) / Fold change /veh FAM167A (11723789_a_at) / RFU FAM26E (11764081_at) / Fold change /veh FAM26E (11764081_at) / RFU ISYNA1 (11749810_s_at) / Fold change /veh ISYNA1 (11749810_s_at) / RFU ACY1 (11761880_at) / Fold change /veh ACY1 (11761880_at) / RFU 11764098_at / Fold change /veh 11764098_at / RFU SAMD14 (11745864_x_at) / Fold change /veh SAMD14 (11745864_x_at) / RFU NPB (11741838_a_at) / Fold change /veh NPB (11741838_a_at) / RFU TMPRSS6 (11731388_a_at) / Fold change /veh TMPRSS6 (11731388_a_at) / RFU KRTAP10-2 (11738614_at) / Fold change /veh KRTAP10-2 (11738614_at) / RFU ARHGAP8 /// PRR5-ARHGAP8 (11727945_x_at) / Fold change /veh ARHGAP8 /// PRR5-ARHGAP8 (11727945_x_at) / RFU KRTAP5-7 /// NADSYN1 (11734609_at) / Fold change /veh KRTAP5-7 /// NADSYN1 (11734609_at) / RFU RASL12 (11751679_a_at) / Fold change /veh RASL12 (11751679_a_at) / RFU CDKN2B (11736163_a_at) / Fold change /veh CDKN2B (11736163_a_at) / RFU PRF1 (11729649_at) / Fold change /veh PRF1 (11729649_at) / RFU, ZNF638 /// ZNF638-IT1 / Fold change vs veh, ZNF638 /// ZNF638-IT1 / RFU, PANK3 / Fold change vs veh, PANK3 / RFU, SH3YL1 / Fold change vs veh, SH3YL1 / RFU, ZEB2 / Fold change vs veh, ZEB2 / RFU, NRIP1 / Fold change vs veh, NRIP1 / RFU, PTTG1IP / Fold change vs veh, PTTG1IP / RFU, CAPN2 / Fold change vs veh, CAPN2 / RFU, MED14 / Fold change vs veh, MED14 / RFU, SNORA58 / Fold change vs veh, SNORA58 / RFU, C1orf63 / Fold change vs veh, C1orf63 / RFU, LRRFIP1 / Fold change vs veh, LRRFIP1 / RFU, NDUFAF7 / Fold change vs veh, NDUFAF7 / RFU, SLC12A2 / Fold change vs veh, SLC12A2 / RFU, IBTK / Fold change vs veh, IBTK / RFU, ESF1 / Fold change vs veh, ESF1 / Fold change vs veh, TMEM50B / RFU, TAOK1 / Fold change vs veh, TAOK1 / RFU, ACBD3 / Fold change vs veh, ACBD3 / RFU, TMA16 / Fold change vs veh, TMA16 / RFU, RWDD3 / Fold change vs veh, RWDD3 / RFU, BCAT1 / Fold change vs veh, BCAT1 / RFU, EDEM3 / Fold change vs veh, EDEM3 / RFU, TMEM33 / Fold change vs veh, TMEM33 / RFU, WDR75 / Fold change vs veh, WDR75 / RFU, AHCTF1 / Fold change vs veh, AHCTF1 / RFU, TFRC / Fold change vs veh, TFRC / RFU, ZDHHC17 / Fold change vs veh, ZDHHC17 / RFU, NOM1 / Fold change vs veh, NOM1 / RFU, ARL8B / Fold change vs veh, ARL8B / RFU, ZBTB11 / Fold change vs veh, ZBTB11 / RFU, TAMM41 / Fold change vs veh, TAMM41 / RFU, KIAA1704 /// LOC100996395 / Fold change vs veh, KIAA1704 /// LOC100996395 / RFU, ING1 / Fold change vs veh, ING1 / RFU, TRMT61B / Fold change vs veh, TRMT61B / RFU, FUBP3 / Fold change vs veh, FUBP3 / RFU, TP53 / Fold change vs veh, TP53 / RFU, TNKS2 / Fold change vs veh, TNKS2 / RFU, ZFP14 / Fold change vs veh, ZFP14 / RFU, ACTR2 / Fold change vs veh, ACTR2 / RFU, PPP3R1 / Fold change vs veh, PPP3R1 / RFU, PIK3R1 / Fold change vs veh, PIK3R1 / RFU, HNRNPA1 / Fold change vs veh, HNRNPA1 / RFU, RNF170 / Fold change vs veh, RNF170 / RFU, ZNF28 / Fold change vs veh, ZNF28 / RFU, RNGTT / Fold change vs veh, RNGTT / RFU, OGT / Fold change vs veh, OGT / RFU, BRD1 / Fold change vs veh, BRD1 / RFU, MARS / Fold change vs veh, MARS / RFU, ZNF655 / Fold change vs veh, ZNF655 / RFU, FAHD1 / Fold change vs veh, FAHD1 / RFU, BDP1 / Fold change vs veh, BDP1 / RFU, LRRCC1 / Fold change vs veh, LRRCC1 / RFU, ARID1A / Fold change vs veh, ARID1A / RFU, ZNF146 / Fold change vs veh, ZNF146 / RFU, ZNF330 / Fold change vs veh, ZNF330 / RFU, GPN3 / Fold change vs veh, GPN3 / RFU, C9orf123 / Fold change vs veh, C9orf123 / RFU, N4BP2L2 / Fold change vs veh, N4BP2L2 / RFU, ARFIP1 / Fold change vs veh, ARFIP1 / RFU, FAM179B / Fold change vs veh, FAM179B / RFU, BCL10 / Fold change vs veh, BCL10 / RFU, UHRF1BP1L / Fold change vs veh, UHRF1BP1L / RFU, BET1 / Fold change vs veh, BET1 / RFU, CNOT2 / Fold change vs veh, CNOT2 / RFU, ZNF268 / Fold change vs veh, ZNF268 / Fold change vs veh, ZNF507 / RFU, DGCR2 / Fold change vs veh, DGCR2 / RFU, WDSUB1 / Fold change vs veh, WDSUB1 / Fold change vs veh, HSP90B1 /// MIR3652 / RFU, ADSS / Fold change vs veh, ADSS / RFU, GK / Fold change vs veh, GK / RFU, ZNF148 / Fold change vs veh, ZNF148 / RFU, TAF9 / Fold change vs veh, TAF9 / RFU, SLC1A5 / Fold change vs veh, SLC1A5 / RFU, SLMO2 / Fold change vs veh, SLMO2 / RFU, ABCC4 / Fold change vs veh, ABCC4 / RFU, LOC101060439 /// RAP1B / Fold change vs veh, LOC101060439 /// RAP1B / RFU, RFX7 / Fold change vs veh, RFX7 / RFU, GTPBP10 / Fold change vs veh, GTPBP10 / RFU, CNEP1R1 / Fold change vs veh, CNEP1R1 / RFU, BIVM-ERCC5 /// ERCC5 / Fold change vs veh, BIVM-ERCC5 /// ERCC5 / RFU, ILF3 / Fold change vs veh, ILF3 / RFU 11762660_at / Fold change /veh 11762660_at / RFU VCAN (11757783_s_at) / Fold change /veh VCAN (11757783_s_at) / RFU DDX43 (11728927_at) / Fold change /veh DDX43 (11728927_at) / RFU KRT8 (11758188_x_at) / Fold change /veh KRT8 (11758188_x_at) / RFU NKD1 (11759106_at) / Fold change /veh NKD1 (11759106_at) / RFU SRD5A1 (11742802_a_at) / Fold change /veh SRD5A1 (11742802_a_at) / RFU TPSAB1 /// TPSB2 (11721975_s_at) / Fold change /veh TPSAB1 /// TPSB2 (11721975_s_at) / RFU GSTM3 (11746129_a_at) / Fold change /veh GSTM3 (11746129_a_at) / RFU IL23R (11737362_x_at) / Fold change /veh IL23R (11737362_x_at) / RFU TMEM51 (11727254_a_at) / Fold change /veh TMEM51 (11727254_a_at) / RFU PIWIL2 (11732686_x_at) / Fold change /veh PIWIL2 (11732686_x_at) / RFU ORM1 (11744905_x_at) / Fold change /veh ORM1 (11744905_x_at) / RFU CCDC152 (11743942_at) / Fold change /veh CCDC152 (11743942_at) / RFU ECM1 (11717891_a_at) / Fold change /veh ECM1 (11717891_a_at) / RFU IL23R (11748794_a_at) / Fold change /veh IL23R (11748794_a_at) / RFU TNFAIP8L3 (11732012_x_at) / Fold change /veh TNFAIP8L3 (11732012_x_at) / RFU MBOAT4 (11741988_at) / Fold change /veh MBOAT4 (11741988_at) / RFU 11764193_at / Fold change /veh 11764193_at / RFU TMEM53 (11763286_at) / Fold change /veh TMEM53 (11763286_at) / RFU MAGEB2 (11727129_at) / Fold change /veh MAGEB2 (11727129_at) / RFU TMEM200A (11744735_a_at) / Fold change /veh TMEM200A (11744735_a_at) / RFU CCDC152 (11751479_a_at) / Fold change /veh CCDC152 (11751479_a_at) / RFU FAM211A (11726209_a_at) / Fold change /veh FAM211A (11726209_a_at) / RFU RGS16 (11746705_a_at) / Fold change /veh RGS16 (11746705_a_at) / RFU VCAN (11755009_s_at) / Fold change /veh VCAN (11755009_s_at) / RFU RHOB (11743442_s_at) / Fold change /veh RHOB (11743442_s_at) / RFU RGS16 (11720943_a_at) / Fold change /veh RGS16 (11720943_a_at) / RFU RGS16 (11720944_at) / Fold change /veh RGS16 (11720944_at) / RFU, VPS4B / Fold change vs veh, VPS4B / RFU, CREB1 / Fold change vs veh, CREB1 / RFU, DNAJC13 / Fold change vs veh, DNAJC13 / RFU, GNAQ / Fold change vs veh, GNAQ / RFU, CDK5R1 / Fold change vs veh, CDK5R1 / RFU, ZRANB3 / Fold change vs veh, ZRANB3 / RFU, CUL4A / Fold change vs veh, CUL4A / RFU, CCNY / Fold change vs veh, CCNY / RFU, UFL1 / Fold change vs veh, UFL1 / RFU, COG3 / Fold change vs veh, COG3 / RFU, DIAPH2 / Fold change vs veh, DIAPH2 / RFU, SKA2 / Fold change vs veh, SKA2 / RFU, AFF3 / Fold change vs veh, AFF3 / RFU, LMF1 / Fold change vs veh, LMF1 / RFU, IPO11 / Fold change vs veh, IPO11 / RFU, DFFB / Fold change vs veh, DFFB / RFU, FOXP1 / Fold change vs veh, FOXP1 / RFU, CARD8 / Fold change vs veh, CARD8 / RFU, STRN3 / Fold change vs veh, STRN3 / RFU, ADK / Fold change vs veh, ADK / RFU, RASSF2 / Fold change vs veh, RASSF2 / RFU, WIPF1 / Fold change vs veh, WIPF1 / RFU, LARP1B / Fold change vs veh, LARP1B / RFU, RASA1 / Fold change vs veh, RASA1 / RFU, RB1 / Fold change vs veh, RB1 / RFU, PPFIA1 / Fold change vs veh, PPFIA1 / RFU, MAT2A / Fold change vs veh, MAT2A / RFU, CCT5 / Fold change vs veh, CCT5 / RFU, WDR92 / Fold change vs veh, WDR92 / RFU, CUX1 / Fold change vs veh, CUX1 / RFU, TTC7A / Fold change vs veh, TTC7A / RFU, TMEM135 / Fold change vs veh, TMEM135 / RFU, DEPTOR / Fold change vs veh, DEPTOR / RFU, CPM / Fold change vs veh, CPM / RFU, DNAJB6 / Fold change vs veh, DNAJB6 / RFU, CACNA2D3 / Fold change vs veh, CACNA2D3 / RFU, DTX4 / Fold change vs veh, DTX4 / RFU, TFCP2 / Fold change vs veh, TFCP2 / RFU, GMCL1 /// GMCL1P1 / Fold change vs veh, GMCL1 /// GMCL1P1 / RFU, AEBP2 / Fold change vs veh, AEBP2 / RFU, SNHG1 /// SNORD22 /// SNORD25 /// SNORD26 /// SNORD27 /// SNORD28 /// SNORD29 /// SNORD31 / Fold change vs veh, SNHG1 /// SNORD22 /// SNORD25 /// SNORD26 /// SNORD27 /// SNORD28 /// SNORD29 /// SNORD31 / Fold change (Aza/veh), C12orf56 (ProbeSet 11735607_a_at) / Fold change (ACY-1035/veh), C12orf56 (ProbeSet 11735607_a_at) / Fold change (Aza/veh), FGFR1OP (ProbeSet 11751329_s_at) / Fold change (ACY-1035/veh), FGFR1OP (ProbeSet 11751329_s_at) / Fold change (Aza/veh), VPS36 (ProbeSet 11739960_a_at) / Fold change (ACY-1035/veh), VPS36 (ProbeSet 11739960_a_at) / RFU SYPL1 (11715823_x_at) / Fold change /veh SYPL1 (11715823_x_at) / RFU IGFBP7 (11715501_s_at) / Fold change /veh IGFBP7 (11715501_s_at) / RFU REEP3 (11722064_at) / Fold change /veh REEP3 (11722064_at) / RFU IGLL1 (11728026_x_at) / Fold change /veh IGLL1 (11728026_x_at): dose or concentration left out as unconfirmed
Conditions: ProbeSet 11718569_a_at; LIST D

Nc1ncn([C@@H]2O[C@H](CO)[C@@H](O)[C@H]2O)c(=O)n1 [azacitidine]
RFU, WIPF1: 81.62 RFU
